Experimental data reported in patent US9669005B2, “Use of naringenin in preparing drugs for preventing and/or treatment abdominal aortic aneurysm” (priority 2013, dated 2017).

Key:
Assay type in all cases: in vivo
[1] = Body weight and blood fat of CaPO4 treated C57BL/6J mice
Procedure: Gavage was started at the first day after surgery, and water, naringenin (50 mg/kg) (Sigma-Aldrich, St. Louis, Mo.) or doxycycline (100 mg/kg) (Sigma-Aldrich, St. Louis, Mo.) gavage were given on mice daily. Materials were removed from the mice 7 days after gavage. Mice were weighed, and blood was drawn from inner canthus by capillary, after centrifuged for 10 minutes at 6000 rotations, the supernatant was removed and blood fat was measured (kit is purchased from BIOSINO company). Then perfusion and washing were performed on mice using PBS. Blood vessels were separated, and four blood vessels were randomly chosen for each group for photographing. The results were shown in FIG. 1, wherein, NaCl was the group of daubing NaCl (n=11), CaPO4 was the group of daubing CaPO4 plus water feed (n=12), CaPO4+NGN was the group of daubing CaPO4 μlus naringenin gavage (n=11), and CaPO4+Dox was the group of daubing CaPO4 μlus doxycycline gavage (n=11).

IL-6 and MCP-1 [2] = assay: Immunohistochemical staining of IL-6 and MCP-1 on vascular walls, CaPO4 model; conditions: CaPO4 daubed mice; immunohistochemistry; FIG. 3B
Description: IL-6 and MCP-1 are proinflammatory chemotactic factors and cytokines, and they are mainly from vascular walls. MCP-1 can release more matrix metalloproteinase to degrade matrix by recruiting leukocytes, which mediats vascular remodeling and expanding (MacTaggart J N et al. Deletion of ccr2 but not ccr5 or cxcr3 inhibits aortic aneurysm formation Surgery. 2007; 142:284-288; Ishibashi M et al. Bone marrow-derived monocyte chemoattractant protein-1 receptor ccr2 is critical in angiotensin ii-induced acceleration of atherosclerosis and aneurysm formation in hypercholesterolemic mice. Arterioscl throm vasc biol. 2004; 24: e174-178), while IL-6 can enlarge effect of MCP-1 to aggravate the onset of abdominal aortic aneurysms (Tieu B C et al. An adventitial il-6/mcpl amplification loop accelerates macrophage-mediated vascular inflammation leading to aortic dissection in mice. J Clin Invest. 2009; 119:3637-3651). We used histochemical staining to identify the expressions of IL-6 and MCP-1 on vascular walls. IL-6 and MCP-1 were immunohistochemical results of anti-IL-6 and anti-MCP-1 specific antibodies (purchased from Abcam, Cambridge Company, UK), respectively.

[3] = Biochemical indexes, body weight and blood pressure of angiotensin II induced ApoE-/- mice; conditions: naringenin 50 mg/kg gavage 28 days
Procedure: Firstly, 16 weeks of male ApoE^−/− mice were randomly divided into two groups, control group (n=16) and naringenin group (n=15), respectively. And then they were anesthetized by 0.1% pentobarbital sodium, and mini pumps (model 2004, Alzet, Cupertino, Calif.) were subcutaneously submerged; angiotensin II (Sigma-Aldrich, St. Louis, Mo.) dissolved with normal saline was added to the pump, such that drugs can be continuously administrated for 4 weeks at a dosage of 1000 ng/kg/min. From the first day after surgery, gavage was daily performed to mice at constant time points, water gavage in control group, and naringenin gavage (50 mg/kg) in naringenin group. Materials were removed 28 days after gavage. Blood pressure of the mice was measured by tail cuff method with BP-89A sphygmomanometer (Beijing Softron Biotechnology Co., Ltd.), and the mice were weighted. Blood was drawn in inner canthus of the mice, and after centrifuged for 10 minutes at 6000 rotations, supernatant was removed and the blood fat levels of the mice were measured.

[4] = test system: IL-6, MCP-1, IL-10, TNF-α and IFN-γ in plasma; assay: Inflammatory factors in plasma by flow kit, angiotensin II model; conditions: AngII ApoE-/- mice, naringenin gavage, FIG. 7B
Procedure: Eyeballs of mice were removed and blood was drawn, 20 μl of heparin was added into the blood, after centrifuged at 6000 rotations and 4[…] for 10 minutes, the supernatant was aspirated. 10 μl of supernatant was taken, and 10 μl of beads were added, and then 10 μl of PE was added, washed twice with lotion after incubating for 2 hours at room temperature, and then 200 μl of lotion is added. Sorting was performed in the manner of up-flowing after blending (wherein, the flow kits of inflammatory factors of mice were purchased from BD Company).

IL-6 and MCP-1 [5] = assay: Immunofluorescent staining of IL-6 and MCP-1 in vascular walls, angiotensin II model; conditions: AngII ApoE-/- mice; naringenin gavage; immunofluorescence; FIG. 7C
Procedure: In order to illustrate the mechanism by which naringenin reduces inflammatory reaction of abdominal aorta vascular walls of mice, immunofluorescent staining was performed on IL-6 and MCP-1 by continuous sections to analyze their distributions and expressions in vascular walls.

NMP-9 and NMP-2 = assay: Gelatin zymography, angiotensin II model; conditions: AngII ApoE-/- mice; naringenin gavage; FIG. 8B
Procedure: After extravasated blood in fresh removed blood vessels of infrarenal site in abdominal aortas of mice were cleared, and fat and connective tissues were removed, and blood vessels were cut into 1 cm ring, and put into 24-well plate. Blood vessels were cultured for 24 hours using 0.5 ml serum-free medium with high glucose. After the cultured supernatant protein was quantified, mercaptoethanol-free protein sample loading buffer was added, cryopreserved at −80° C. Water was used to prepare gelatin (Sigma-Aldrich, St. Louis, Mo.) into a concentration of 10 mg/ml, which was added to separation gel of protein electrophoresis according to the proportion of 1:10, causing the final concentration of gelatin as 1 mg/ml. Electrophoresis was performed in a voltage of 80V at 4° C. The gel was put into 0.25% Trixon-100 solution, and washing was performed twice in 30 minutes. […] Incubated gel was put into Coomassie brilliant blue to stain for 1-2 hours at room temperature, washed for 30 minutes with a solution having 30% methanol and 10% glacial acetic acid, a solution having 20% methanol and 10% glacial acetic acid, and a solution having 10% methanol and 5% glacial acetic acid, respectively, and then analyzed with Odyssey infrared fluorescence scanning system (LI-COR Biosciences, Lincoln, Nebr.). […]

[6] = CaPO4 treated C57BL/6J mice, gavage 7 days, naringenin 50 mg/kg, doxycycline 100 mg/kg
[7] = AngII 1000 ng/kg/min ApoE-/- mice

**Q.** For O=C1C[C@@H](c2ccc(O)cc2)Oc2cc(O)cc(O)c21 [naringenin], which “body weights and blood fat levels” value ([1]; C57BL/6J mice, naringenin gavage 50 mg/kg, 7 days) is on record?
**A.** does not affect

**Q.** What about the Body weight [1, 6] of the same compound?
**A.** 20.1 ± 1.41 g

**Q.** What about the Cholesterol [1, 6] of the same compound?
**A.** 3.53 ± 0.45 mmol

**Q.** What about the Triglyceride [1, 6] of the same compound?
**A.** 0.97 ± 0.22 mmol

**Q.** What about the “expression of IL-6 and MCP-1 in adventitia in vascular walls” value (IL-6 and MCP-1 [2]) of the same compound?
**A.** reduce their expressions

**Q.** And the Body weight [3, 7]?
**A.** 28.9 ± 2.03 g

**Q.** And the Cholesterol [3, 7]?
**A.** 8.46 ± 2.45 mmol

**Q.** What about the High density lipoprotein [3, 7] of the same compound?
**A.** 56.5 ± 5.97 mg/deciliter

**Q.** And the Low density lipoprotein [3, 7]?
**A.** 44.1 ± 15.9 mg/deciliter

**Q.** What about the Triglyceride [3, 7] of the same compound?
**A.** 0.69 ± 0.35 mmol

**Q.** What about the Blood pressure ([3]; AngII 1000 ng/kg/min ApoE-/- mice, tail cuff method) of the same compound?
**A.** 136.6 ± 14.27 mmHg

**Q.** And the “blood pressure and body weight” value ([3]; AngII ApoE-/- mice)?
**A.** does not have an effect

**Q.** What about the “levels of cholesterol, triglyceride, and low density lipoprotein” value ([3]; AngII ApoE-/- mice) of the same compound?
**A.** reduces

**Q.** What about the IL-10 in plasma [4] of the same compound?
**A.** does not change significantly

**Q.** What about the “TNF-α and IFN-γ in plasma” value [4] of the same compound?
**A.** do not change

**Q.** What about the “levels of IL-6 and MCP-1 in plasma” value ([4]; n=11, P<0.05) of the same compound?
**A.** significantly decrease

**Q.** What about the “production of IL-6 and MCP-1 in vascular walls” value (IL-6 and MCP-1 [5]) of the same compound?
**A.** significantly decreases

**Q.** What about the “active form of NMP-9 and NMP-2 (gelatin zymography)” value (NMP-9 and NMP-2) of the same compound?
**A.** do not change significantly

**Q.** And the “zymogen form of MMP-9 (gelatin zymography)” value (NMP-9 and NMP-2)?
**A.** significantly decreases
